The source of these data is PMC10149936, “Cofilin activation in pancreatic acinar cells plays a pivotal convergent role for mediating CCK-stimulated enzyme secretion and growth” (Frontiers in Physiology, 2023).

Assay [1] has as its system cofilin / total PP2A association. Nature of the assay: co-immunoprecipitation of cofilin with total PP2A in pancreatic acini. Type of assay: cell-based, rat. The following applies: for increase in total PP2A co-immunoprecipitation with cofilin: CCK-8 100 nM 3 min, TPA 1 µM 5 min, Figure 8B. The protocol: For co-immunoprecipitation, 600 μg of protein was incubated with 15 μL of the anti-cofilin antibody (Santa Cruz Biotechnology, Inc. Dallas, TX) and 25 μL of protein A/G agarose beads (Thermo-Fisher Scientific. Waltham, MA) overnight at 4°C under agitation. Samples were washed three times with lysis buffer, re-suspended in 12.5 μL of Sample Buffer, Laemlii 2x concentrate and boiled for 5 min before western blotting.
FIGURE 6 Effect of CCK-8 (100 nM) to alter co-immunoprecipitation of cofilin with total PP2A (A) or PP1 (B). Isolated pancreatic acini were incubated in the absence or presence of CCK-8 (100 nM) for 3 min and then lysed. Equal amounts of protein were co-immunoprecipitated with an anti-cofilin (Santa Cruz, SC-376476) and then subjected to Western blots using anti-PP2A and anti-PP1. Bands were visualized using chemiluminescence and quantified by densitometry. Top: Results of a representative blot of four independent experiments are shown. Bottom: Means ± S.E. of at least 4 independent experiments. Results are expressed as % of basal stimulation of the control group. N.S., No significant. Effect of the lysate, lysis buffer, Protein A/G agarose beads (beads) or Anti-cofilin antibody (Anti-cofilin ab) individually on phospho and total cofilin (pS3), phospho and total PP2A, phospho and total PP1 and tubulin. Lysates were analyzed using cofilin (pS3), Total cofilin, PP2A (pY307), Total PP2A, PP1(pT320), Total PP1 and tubulin. Antibody detecting tubulin was used to verify loading of equal amounts of protein.
FIGURE 8 Effect of a PKD inhibitor, kbNB, or a Src inhibitor, PP2, on the ability of CCK-8 (100 nM) and TPA (1 µM) to stimulate the association of cofilin with either phospho-PP2A (A) or total PP2A (B). Isolated pancreatic acini were incubated in the absence or presence of kbNB (0.1 µM) or PP2 (10 µM) for 3 h and then incubated with no addition (control), CCK-8 (100 nM, 3 min) or TPA (1 μM, 5 min), and then lysed. […] Bands were visualized using chemiluminescence and quantified by densitometry. […] Results are expressed as % of basal stimulation of the control group. […]

Assay [2] deals with SSH1 (pS978) in pancreatic acini. The assay is described as follows: SSH1 phosphorylation (pS978 SSH1 Western blot) in isolated rat pancreatic acini. Type of assay: cell-based. The following applies: for SSH1 dephosphorylation (activation) at short incubation: 0.5 min and 1.5 min, data not shown; for SSH1 phosphorylation (i.e., deactivation), maximum increment: 30 min. On the procedure:
Pancreatic acini preparations were obtained by collagenase digestion as previously described ([Bissonnette et al., 1984]; [Sato et al., 1989]; [Ramos-Alvarez and Jensen, 2018]). […] Isolated acini and CCK1-R/Panc-1 cells (M&M 2.2.1) were also preincubated with two SSH1 inhibitors, D3 (25 μM, 1 h) ([Li et al., 2015]) or SE (50 μM, 3 h for acini; 24 h for CCK1-R/Panc-1 cells) ([Lee et al., 2017]). […] Cells were lysed in lysis buffer (50 mM Tris/HCl pH 7.5, 150 mM NaCl, 1% Triton X-100, 1% deoxycholate, 0.1% sodium azide, 1 mM EGTA, 0.4 mM EDTA, 0.2 mM sodium orthovanadate, 1 mM PMSF, and one protease inhibitor tablet per 10 mL). After sonication, lysates were centrifuged at 10,000×g for 15 min at 4°C and protein concentration was measured using the Bio-Rad protein assay reagent. Finally, cells were processed as below for Western blotting.
Western blotting and immunoprecipitation were performed as described previously ([Ramos-Alvarez and Jensen, 2018]). Whole cell lysates were subjected to SDS-PAGE using 4%–20% Tris–Glycine gels. […] Finally, membranes were then washed again twice in blocking buffer for 4 min, twice in washing buffer for 4 min, incubated for 4 min with chemiluminescence detection reagents. The intensity of the protein bands was measured using GeneTools software from Syngene, which were assessed in the linear detection range.
FIGURE 2 Time course of phosphorylation of Lim kinase (LIMK) (A), cofilin (B) and Slingshot 1 phosphatase (SSH1) (C) induced by CCK-8 and TPA. Isolated pancreatic acini were incubated with either no addition (control), CCK-8 (0.3 and 100 nM) or TPA (1 µM) for the indicated periods of time and then lysed. Western blots were analyzed using anti-pT508 LIMK, anti-pS3 cofilin and anti-pS978 SSH1, which […] the activation states of LIMK, cofilin and SSH1. Bands were visualized using chemiluminescence and quantified by densitometry. Top: Results of a representative blot of three independent experiments are shown. Bottom: Means ± S.E. of at least 3 independent experiments. Results are expressed as % of basal stimulation of the control group. *, p < 0.05 compared to the control group.
For orientation: In western blotting, separated proteins are transferred to a membrane and probed.

For the compound `CCCCCCCCCCCCCC(=O)O[C@@H]1[C@@H](C)[C@@]2(O)[C@@H](C=C(CO)C[C@]3(O)C(=O)C(C)=C[C@@H]23)[C@H]2C(C)(C)[C@]12OC(C)=O` [TPA, 12-O-tetradecanoylphobol-13-acetate], the “increase in total PP2A co-immunoprecipitation with cofilin” value in assay [1] is 40%. The “SSH1 dephosphorylation (activation) at short incubation” value in assay [2] is on record as “no dephosphorylation of SSH1 (activation) was seen”. In assay [2] (TPA 1 µM), the “SSH1 phosphorylation (i.e., deactivation), maximum increment” value amounted to 151%.

With “COOH-terminal octapeptide of cholecystokinin [CCK-8]”, the “increase in total PP2A co-immunoprecipitation with cofilin” value in assay [1] is reported as 40%. In addition, the “increase in PP2A immunoprecipitation with cofilin” value in assay [1] (CCK-8 100 nM, 3 min, Figure 6) was found to be 25%. In addition, the “SSH1 dephosphorylation (activation) at short incubation” value in assay [2] is listed as “no dephosphorylation of SSH1 (activation) was seen”. In assay [2] (CCK-8 100 nM), the “SSH1 phosphorylation (i.e., deactivation), maximum increment” value is on record as 162%.
